In publication PMC8307384, “Characterization of Two α-L-Arabinofuranosidases from Acetivibrio mesophilus and Their Synergistic Effect in Degradation of Arabinose-Containing Substrates” (Microorganisms, 2021):

Molecular target: T1, AmAraf51 (Acetivibrio mesophilus, UniProt A0A4Q0I2R2)
T1 construct: gene EFD62_11990; complete ORF, 509 residues, no signal peptide; N-terminal His6 tag (not reported cut); E. coli ArcticExpress (DE3), pET24c
Experiment: TLC of hydrolysis products
Format: biochemical
Details: 85 nM enzyme, 0.5 g/L substrate, pH 6.0, 60 °C

T1 sequence (A0A4Q0I2R2 entry or part of it): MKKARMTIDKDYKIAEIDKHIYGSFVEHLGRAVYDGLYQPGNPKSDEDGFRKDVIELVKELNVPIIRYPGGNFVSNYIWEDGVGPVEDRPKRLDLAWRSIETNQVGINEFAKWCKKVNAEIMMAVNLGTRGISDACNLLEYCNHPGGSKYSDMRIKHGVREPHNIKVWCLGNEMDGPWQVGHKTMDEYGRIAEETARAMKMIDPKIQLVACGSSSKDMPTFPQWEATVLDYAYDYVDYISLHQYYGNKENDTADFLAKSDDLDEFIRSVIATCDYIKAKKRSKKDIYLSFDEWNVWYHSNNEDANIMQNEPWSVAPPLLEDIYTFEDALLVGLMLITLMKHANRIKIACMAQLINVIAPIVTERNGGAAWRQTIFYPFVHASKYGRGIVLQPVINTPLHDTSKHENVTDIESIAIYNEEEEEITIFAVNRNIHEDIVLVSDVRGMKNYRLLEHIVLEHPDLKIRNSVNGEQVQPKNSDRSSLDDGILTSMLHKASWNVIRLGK

SMILES: OC[C@@H]1O[C@@H](OC[C@@H]2O[C@@H](OC[C@@H]3OC(O)[C@H](O)[C@H]3O)[C@H](O)[C@H]2O)[C@H](O)[C@H]1O (stereo partly shown) [A3, arabinotriose]
- TLC of hydrolysis products: incubation of AmAraf51 with three different AOS led to their almost complete hydrolysis to arabinose
